Laboratory results: patent US9624758B2, “Use of oligo-quaternary compositions to increase scale inhibitor lifetime in a subterranean formation” (Ecolab USA Inc., priority 2012, dated 2017)
Read-outs that look alike come from different tables or passages of the source.

Experiments:
Algae = experiment: Toxicity: EC50 Algae
Description: (§1) Product A was evaluated for toxicity using various tests.

Biodegradation = experiment: Biodegradation
Description: as §1

[1] = format: cell-based
Description: as §1

Rat = experiment: Toxicity: LC50 Rat; details: in vivo
Description: as §1

[2] = Toxicity: LC50 Fathead Minnow; details: in vivo
Description: as §1

Microtox = format: cell-based
Description: as §1

Daphnia Magna = experiment: Toxicity: EC50 Daphnia Magna; format: in vivo
Description: as §1

[3] = Coreflood on Bandera outcrop cores; details: post versus pre treatment
Description: Two corefloods were carried out simultaneously on two Bandera outcrop cores (1.5″ diameter by 3″ length), using a Scaled Solutions dual coreflood apparatus. The composition of these cores is set out in the table below:
Both cores were wrapped with PTFE tape and cased in heat shrink tubing prior to insertion into a Viton sleeve and mounted in a Hassler type core holder with a confining pressure of 1200 psi. Both cores were then flushed with synthetic brine at 1 mL/min for at least 2 hours and until the differential pressure was stable. Brine was flushed at 0.5 mL/min overnight.
Both cores were saturated with synthetic brine under ambient conditions in the forward direction at 1 mL/min for 10 minutes, 2 mL/min for 10 minutes, 3 mL/min for 10 minutes, and 4 mL/min for 2 hours and until the differential pressure was stable. After a stable differential pressure was achieved, the permeability to brine was measured in the forward flow by flooding at 4, 3, 2, 1 mL/min at room temperature.
Brine was then injected into both cores in the forward direction at 1 mL/min until the oven reached a temperature of 80° C. […] Following plug saturation, the permeability of each core to synthetic brine was measured in the forward flow by flooding at 4, 3, 2, and 1 mL/min at 80° C. […]
Both cores were injected with synthetic brine at 2 mL/min with effluent samples being collected. The samples were analyzed by ICP. […]

[4] = Compatibility test of scale inhibitor solutions with Product A solution in synthetic brine; format: physicochemical; set-up: key: C—Clear; P—Precipitate; details: for Clarity of Mixed Solutions 10:90: ratio 10:90; for Clarity of Mixed Solutions 50:50: ratio 50:50
Excerpt: Individual solutions (Solutions 1B through 1G) of 10% Product B, C, D, E, F and G, respectively, in a synthetic brine (see the table below showing the synthetic brine composition) were mixed with a 10% solution (Solution 2) of Product A in the synthetic brine. The two sets of solutions were mixed with Solution 2 (i.e., each of Solutions 1B through 1G were mixed with Solution 2) at ratios of 10:90, 30:70, 50:50, 70:30 and 90:10 to indicate that no precipitate would form at any concentration in the mixing concentration range from 10:90 to 90:10. These compatibility screening tests indicate that it is unlikely for any incompatibility to be experienced during deployment and flow back of a squeeze treatment. Any incompatibilities under ambient conditions were observed visually from solution clarity and/or precipitate. The samples were then heated to the test temperature (80° C.) and any further incompatibilities after 2 and 24 hours recorded.

[5] = 10% scale inhibitor solution : 10% Product A solution in synthetic brine, ambient, then 80° C. 2 and 24 hours
[6] = 10% solutions in synthetic brine, with Product A
[7] = ratio 30:70 (second column), 10% solutions in synthetic brine, with Product A
[8] = ratio printed 30:70 (fourth column), 10% solutions in synthetic brine, with Product A

| Permeability Recovery [3] [%] | Compound | EC50 (Algae) [µg/mL] | Biodegradation (Biodegradation) [%] | Ames Test [1] | LC50 Rat (Rat) | LC50 [2] [µg/mL] | IC50 (Microtox; 5 min, read-out: 5-min IC50 (95% CI)) [µg/mL] | IC50 (Microtox; 0.25 h, 15 min, read-out: 15-min IC50 (95% CI)) [µg/mL] | EC50 (Daphnia Magna) [µg/mL] | Clarity of Mixed Solutions 10:90 [4, 5] | Clarity of Mixed Solutions 10:90 [4, 6] | Clarity of Mixed Solutions 30:70 [4, 7] | Clarity of Mixed Solutions 50:50 [4, 6] | Clarity of Mixed Solutions 30:70 [4, 8] |
| --- | --- | --- | --- | --- | --- | --- | --- | --- | --- | --- | --- | --- | --- | --- |
|  | C[N+](C)(C)CC(O)C[N+](C)(C)C.[Cl-].[Cl-] [Product A, 1,3-propandiaminium, 2-hydroxy-N,N,N,N′,N′,N′-hexamethyl-, dichloride] | 1500 | 9 | Non- | 4,000 mg/kg | > 1000 | > 4000 | > 4000 | 186 |  |  |  |  |  |
| 75 | O=P(O)(O)CN(CCCCCCN(CP(=O)(O)O)CP(=O)(O)O)CCCCCCN(CP(=O)(O)O)CP(=O)(O)O [Product B, BHMT phosphonate] |  |  |  |  |  |  |  |  | C | C | C | C | C |
|  | DETA phosphonate [Product C] |  |  |  |  |  |  |  |  | C | C | C | C | C |
